# Data reported in US9296687B2, “Modulators of HSP70/DnaK function and methods of use thereof” (The Trustees of the University of Pennsylvania, priority 2008, dated 2016).
# Experiments:
# caspase-3, caspase-8 = experiment: Western blot for caspase cleavage; assay type: cell-based, human
# NF-κB = experiment: NF-κB-dependent luciferase reporter in H1299 cells; assay type: cell-based, human
# Procedure: FIG. 4. PES Interferes with HSP70 Actions. […] (B) IP-WB analyses of WCE from PES-treated U2OS osteosarcoma cells reveal a lower bundance of HSP70 complexes containing BAG-1M or APAF1. […] Note evidence of caspase cleavage in cisplatin-treated cells, but not in the presence of PES. […] (D) (left) H1299 cells were transfected with a NF-κB-dependent luciferase reporter. 24 h later, cells were either pretreated with DMSO or the indicated amount of PES for 1 h, followed by the addition of 20 ng/ml of TNFα for 5 h, as specified. Each graphical representation indicates the mean±SD of at least three independent cultures relative to control (DMSO-treated) cells. (right) H1299 cells were treated with 20 μM PES for 5.7 h, followed by treatment with 10 ng/ml TNFα for 20 min. WCE were immunoblotted for the proteins indicated.
# MTT cell viability assay = assay type: cell-based, human; settings: human; 20 μM, all tumor cell lines examined; read-out: loss of cell viability
# Procedure: (§1) Cell viability assays were performed using an MTT (methyl thiazolyl tetrazolium) colorimetric assay (Roche Applied Science, Cat. No. 11 465 007 001), with the following modifications. Briefly, cells (1×10^4) were plated into 24 well-assay plates in 0.5 ml media and allowed to attach overnight. […] After the incubation period, 50 μl of the water-soluble MTT labeling reagent [3-[4,5-dimethylthiazol-2-yl]-2,5-diphenyl tetrazolium bromid] were added to the cells, and the cells were incubated for 4 h in a humidified chamber at 37° C. with 5% CO2. The metabolized insoluble formazan crystals were then solubilized using 0.5 ml of the Solubilization solution (10% SDS in 0.01M HCl) per well, and the resulting colored solutions were spectrophotometrically quantified at an absorbance of 570 nm.
# tumor cell lines = experiment: MTT cell viability assay; assay type: cell-based, human
# Procedure: as §1
# FADU cells = experiment: Sulforhodamine B colorimetric assay, PES plus cisplatin; assay type: cell-based, human; settings: 0-100 μM, 1:1 ratio, 72 h
# Procedure: FIG. 20. PES and cisplatin act synergistically to kill cancer cells. […] Experiments were done in triplicate per condition.
# Cells (2×10^4) were plated into 96 well plates in 200 μl media and allowed to attach overnight. Cells were then treated with the indicated doses of PES, cisplatin or PES+Cisplatin. After 72 hr incubation period, cells were washed in PBS and 100 μl of ice cold 10% TCA was added for 1 hr at 4° C. Plates were washed four times with slow-running tap water and air-dried at room temperature. 100 μl of 0.057% SRB solution was added to the cells and incubated for 30 min at room temperature. Fixed cells were quickly rinsed four times with 1% acetic acid to remove unbound dye. The protein-bound dye was solubilized using 200 μl of 10 mM Tris base solution (pH 10.5) per well, and the wells were spectrophotometrically quantified at an absorbance of 540 nm. This methodology is identical to that in Shekan et al, JNCI 82:1107 (1990).
# MiaPaCa2 cells = experiment: Pulse-chase of newly synthesized proteins; assay type: cell-based, human; settings: 20 μM, 3 h chase
# Procedure: FIG. 13. Cycloheximide Reduces PES-Induced Cytoplasmic Vacuolization. (A) Representative phase-contrast images of indicated tumor cell lines pretreated with DMSO or 1 μg/ml of cycloheximide (CHX) for 1 h, followed by the addition of 20 μM PES for 23 h. (B) The molecular chaperone HSP70 has been implicated in promoting proper folding of nascent polypeptides. […] Briefly, MiaPaCa2 cells were incubated in methionine/cysteine starvation medium for 30 min before adding [^35S]methionine/cysteine and DMSO or [^35S]methionine/cysteine and 20 μM PES, as indicated, to pulse for 1 h. Following the pulse, cells were immediately chased by complete medium for 0, 0.5, or 3 h, either in the presence of DMSO or 20 μM PES, as indicated. Cells were harvested at indicated time points, lysed in 1% NP40-containing buffer, and fractionated into detergent-soluble and detergent-insoluble preparations.
# The cells were seeded at ˜50% confluency in 10 ml of DMEM/10% FBS/1× Pen-Strep using 100 mm dish. Next day, the cells were washed extensively in PBS and starved in “methionine/cysteine-free DMEM” (Invitrogen SKU#21013-024) with 5% dialyzed FBS and 1× Pen/Strep for 30 min. Either [^35S] Methionine/Cysteine (500 μCi) and DMSO or [^35S] Methionine/Cysteine (500 μCi) and 20 μM PES were added to the cells for 1 h. The cells were washed extensively to remove [^35S] […]
# HSP70 = HSP70 (Homo sapiens, UniProt P0DMV8); experiment: Competition of untagged PES with B-PES for HSP70; assay type: binding; set-up: endogenous in cells; host or cells: human tumor cell lines (A875, BX-U2OS, U2OS, H1299, MiaPaCa2, HepG2, SKBR3, 293T)
# Procedure: FIG. 15. Evidence supporting HSP70 as the cellular target of PES. (A) Competition studies in vivo support HSP70 as a PES target. H1299 cells were either pre-treated with DMSO or excess (25×) untagged PES for 1 h prior to the addition of 20 μM Biotin-PES (B-PES) for 5 h, and examined for the expression of proteins indicated (left). B-PES-containing complexes were captured by NeutrAvidin Resins, and immunoblotted using the indicated antibodies. […] (B) Competition studies in vitro support HSP70 as a PES target. Purified HSP70 protein was incubated with 0.25 mM B-PES in the absence and in the presence of 0.125 mM untagged PES.
# Chain of HSP70 (P0DMV8 whole entry): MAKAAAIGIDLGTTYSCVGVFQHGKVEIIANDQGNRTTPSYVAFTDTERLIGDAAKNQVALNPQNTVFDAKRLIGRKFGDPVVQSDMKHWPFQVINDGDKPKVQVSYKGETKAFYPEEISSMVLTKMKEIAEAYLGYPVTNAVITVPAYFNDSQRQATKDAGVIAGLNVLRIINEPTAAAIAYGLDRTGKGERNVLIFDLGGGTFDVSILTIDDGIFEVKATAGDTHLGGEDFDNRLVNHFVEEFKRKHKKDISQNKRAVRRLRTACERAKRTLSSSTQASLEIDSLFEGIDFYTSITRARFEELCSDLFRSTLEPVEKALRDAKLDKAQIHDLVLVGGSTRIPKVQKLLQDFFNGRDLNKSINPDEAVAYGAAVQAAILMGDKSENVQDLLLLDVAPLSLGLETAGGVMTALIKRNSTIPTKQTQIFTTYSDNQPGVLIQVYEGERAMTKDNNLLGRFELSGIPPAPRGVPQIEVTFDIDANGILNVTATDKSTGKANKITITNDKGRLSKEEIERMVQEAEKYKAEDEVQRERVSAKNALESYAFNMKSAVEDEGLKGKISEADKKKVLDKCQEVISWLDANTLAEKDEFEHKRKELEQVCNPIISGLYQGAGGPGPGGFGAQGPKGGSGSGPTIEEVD
structure (smiles),measurement,setting,value
"NS(=O)(=O)C#Cc1ccccc1 [PES, 2-Phenylethynesulfonamide]","cleavage of caspase-3, caspase-8 or PARP","caspase-3, caspase-8; PES 20 μM alone","not accompanied by cleavage of caspase-3, caspase-8, or PARP"
same,caspase-cleavage products after cisplatin,"caspase-3, caspase-8; co-treatment with cisplatin",effectively inhibited the appearance of these caspase-cleavage products
same,unstimulated NF-κB activity,NF-κB,inhibited unstimulated NF-κB activity in a dose-dependent manner
same,NF-κB activation stimulated by TNFα,NF-κB; TNFα,inhibited NF-κB activation
same,cytotoxicity at 20 μM,MTT cell viability assay,> 50%
same,IC50,"tumor cell lines; Homo sapiens, various tumor cell lines, read-out: half maximal concentration to exert cytotoxic effect (IC50)",4 to 10 µM
same,"cell viability, dose response",tumor cell lines; all tumor cell lines examined,dose-dependent loss of cell viability
same,combination effect with cisplatin,FADU cells,acts synergistically with cisplatin
same,newly-synthesized proteins in the detergent-insoluble fraction,MiaPaCa2 cells,increase in the newly-synthesized proteins in the detergent-insoluble fraction
same,binding of HSP70 to B-PES matrix with competitor,"HSP70; H1299 cells, excess (25×) untagged PES 1 h, then 20 μM B-PES 5 h",Binding of HSP70 to the matrix is reduced
same,B-PES/HSP70 complex formation,"HSP70; purified HSP70, 0.25 mM B-PES, 0.125 mM untagged PES",reduces B-PES/HSP70 complex formation
